Test [1] concerns the target T1, Recombinant human α-L-iduronidase protein (Homo sapiens, UniProt P35475).
T1 construct: purchased R&D
T1 sequence (P35475 28-653): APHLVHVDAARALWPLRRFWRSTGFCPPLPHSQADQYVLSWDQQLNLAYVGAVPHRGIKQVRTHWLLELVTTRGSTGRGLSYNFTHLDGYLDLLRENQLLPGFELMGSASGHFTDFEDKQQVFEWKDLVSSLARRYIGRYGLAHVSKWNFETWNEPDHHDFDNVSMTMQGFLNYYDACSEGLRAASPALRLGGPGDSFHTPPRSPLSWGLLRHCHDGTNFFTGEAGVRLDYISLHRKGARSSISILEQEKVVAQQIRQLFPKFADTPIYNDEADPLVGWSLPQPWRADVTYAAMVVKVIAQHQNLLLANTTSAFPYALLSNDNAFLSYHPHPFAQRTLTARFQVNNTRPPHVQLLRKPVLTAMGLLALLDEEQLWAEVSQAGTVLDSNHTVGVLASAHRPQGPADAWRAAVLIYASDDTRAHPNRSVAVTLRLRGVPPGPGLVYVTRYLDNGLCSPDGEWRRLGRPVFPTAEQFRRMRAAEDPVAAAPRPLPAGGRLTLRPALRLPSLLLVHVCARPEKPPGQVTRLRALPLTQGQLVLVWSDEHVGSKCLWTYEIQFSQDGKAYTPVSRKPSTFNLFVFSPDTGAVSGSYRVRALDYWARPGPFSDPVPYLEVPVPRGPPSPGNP
Put plainly: Differential scanning fluorimetry (DSF) thermal stabilization.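 Also: Classes count stabilization of α-L-iduronidase despite the GALC label.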 It is filed as binding. As to conditions: ΔTm class. The method, boiled down:
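Purified recombinant human α-L-iduronidase (final 0.75 µM) in 100 mM Hepes, 20 mM MgCl2, pH 7 with SYPRO Orange was heated with compounds (final 1% DMSO). Thermal denaturation was followed by probe fluorescence during a temperature ramp, and stabilization expressed as ΔTm, binned into four categories (A–D).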

The target of test [2] is T2, ALDURAZYME (laronidase, IDUA) (Homo sapiens, UniProt P35475).
T2 construct: purchased ALDURAZYME®
T2 sequence (P35475 26-653 limits assumed): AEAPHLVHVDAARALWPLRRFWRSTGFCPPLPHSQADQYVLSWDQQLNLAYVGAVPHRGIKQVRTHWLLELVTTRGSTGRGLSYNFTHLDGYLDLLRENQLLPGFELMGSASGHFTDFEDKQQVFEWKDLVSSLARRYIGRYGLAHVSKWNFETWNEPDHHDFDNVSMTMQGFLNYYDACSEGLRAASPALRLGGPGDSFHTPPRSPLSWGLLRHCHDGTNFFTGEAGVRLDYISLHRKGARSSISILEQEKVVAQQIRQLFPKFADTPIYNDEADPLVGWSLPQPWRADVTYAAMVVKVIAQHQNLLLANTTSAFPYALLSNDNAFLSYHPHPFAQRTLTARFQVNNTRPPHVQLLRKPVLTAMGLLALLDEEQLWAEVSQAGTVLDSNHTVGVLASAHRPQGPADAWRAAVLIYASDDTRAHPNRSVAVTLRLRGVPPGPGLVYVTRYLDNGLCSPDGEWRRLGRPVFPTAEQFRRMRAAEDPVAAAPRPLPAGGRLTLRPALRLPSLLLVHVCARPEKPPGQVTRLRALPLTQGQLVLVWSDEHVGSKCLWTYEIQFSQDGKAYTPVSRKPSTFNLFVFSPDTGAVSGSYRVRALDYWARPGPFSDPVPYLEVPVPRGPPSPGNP
As to the kind of experiment: Denaturation prevention assay with ALDURAZYME
Format: biochemical. As to conditions: 30 µM compound, pH 7, 37° C. The method, then: (§1) Briefly, recombinant human α-L-iduronidase protein (obtained in the Institute of Biotechnology and Biomedicine in the UAB, Bellaterra, Spain) was combined at a final concentration of 1 µM with 5X of SYPRO Orange and 30 µM of the corresponding compound in a final reaction volume of 25 µL in 100 mM Hepes 20 mM MgCl2 pH 7 buffer. Reactions were incubated at 37° C. and SYPRO Orange fluorescence intensity was monitored at the indicated time points using Glomax® Discover Microplate Reader from Promega (Madison, WI, USA).
Compounds of Examples 8, 39, 40, 54, and 72 were also tested as described above, except that ALDURAZYME® was used instead of the recombinant human α-L-iduronidase protein (obtained in the Institute of Biotechnology and Biomedicine in the UAB, Bellaterra, Spain).

The target of test [3] is T3, Recombinant human α-L-iduronidase protein (Homo sapiens, UniProt P35475).
T3 construct: Ala26-Pro653 with a C-terminal 10_His tag; 10xHis (C); host or cells: HEK293f (stated in b1366 for the UAB protein)
T3 sequence (P35475 26-653): T2 sequence (P35475 26-653 limits assumed)
Put plainly: Denaturation prevention assay in neutral pH buffer. Format: biochemical. As to conditions: 500 µM reference compound, pH 7, 37° C. The method, then:
The capacity of Compounds of the Disclosure to stabilize α-L-iduronidase in neutral pH buffer was assessed using the denaturation prevention assay.
as §1
The compound referred to as Compound A throughout this specification is the compound of Example 8 described above. […] (T=37° C.).

Turning to `CN(CC(=O)N1CCc2ccccc21)Cc1nc2cc(F)ccc2c(=O)[nH]1` [Example 72, 7-fluoro-2-(((2-(indolin-1-yl)-2-oxoethyl)(methyl)amino)methyl)quinazolin-4(3H)-one], the “DSF Activity range” value in test [1] (synthetized Examples 38-94) is “B (ΔTm GALC between 0.5 and 1 is shown as B)”. For the same compound, in test [2], the “prevention of IDUA denaturation” value was “prevent IDUA denaturation”.
For `Cc1csc2c(=O)[nH]c(CN(C)CC(=O)N3CCc4ccccc43)nc12` [Example 39], the “DSF Activity range” value in test [1] (synthetized Examples 38-94) was “B (ΔTm GALC between 0.5 and 1 is shown as B)”. Further, the “prevention of IDUA denaturation” value in test [2] is “prevent IDUA denaturation”.
In the case of `CCN(CC(=O)Nc1c(Cl)cccc1Cl)Cc1nc2ccsc2c(=O)[nH]1` [Example 8, N-(2,6-dichlorophenyl)-2-(ethyl((4-oxo-3,4-dihydrothieno[3,2-d]pyrimidin-2-yl)methyl)amino)acetamide], the “DSF Activity range” value in test [1] (commercially available Examples 8-37) is reported as “A (ΔTm GALC > 1 is shown as A)”. Further, the “prevention of IDUA denaturation” value in test [2] is “prevent IDUA denaturation”.
Take `Cc1csc2c(=O)[nH]c(CN(C)CC(=O)N(C)c3ccc(Cl)c(Cl)c3)nc12` [Example 40, 2-(N-((3,4-dihydro-7-methyl-4-oxothieno[3,2-d]pyrimidin-2-yl)methyl)-N-methylamino)-N-(3,4-dichlorophenyl)-N-methylacetamide]: the “DSF Activity range” value in test [1] (synthetized Examples 38-94) was “B (ΔTm GALC between 0.5 and 1 is shown as B)”. Besides, in test [2], the “prevention of IDUA denaturation” value is “prevent IDUA denaturation”.
On to `O=C[C@H](O)[C@@H](O)[C@H](O)[C@@H](O)C(=O)O` [L-iduronic acid, reference compound], for which the “prevention of pH-induced IDUA denaturation” value in test [3] is “minimal effect”.
On to `CCCN(CC(=O)N(C)c1ccccc1Cl)Cc1nc2cc(C)sc2c(=O)[nH]1` [Example 54], for which, in test [1] (synthetized Examples 38-94), the “DSF Activity range” value is “B (ΔTm GALC between 0.5 and 1 is shown as B)”. Also, the “prevention of IDUA denaturation” value in test [2] was “prevent IDUA denaturation”.
